Literature values as cited in patent US6379705B1, “Stable multi-unitary pharmaceutical preparations containing substituted benzimidazoles” (Laboratorio Mendifar-Produtos Farmaceuticos, S.A., priority 1999, dated 2002).

pH of maximum stability of solutions (omeprazole solutions): 11
degradation in solution (pHs lower than 7.8): very quickly
Compound: COc1ccc2[nH]c([S+]([O-])Cc3ncc(C)c(OC)c3C)nc2c1 (centres unmarked) [omeprazole]
